Experimental data published in PubChem BioAssay (NCI).
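1) Cells in 96-well plates. 2) Compound, 48 h, 5 concentrations. 3) Linear interpolation between surrounding doses. 4) Unreached endpoint = highest concentration. TGI is the concentration that stops growth completely.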

Tested on: SF-295 CNS
Experiment: DTP human tumour cell line panel, 48 h

Structure (SMILES) | TGI
O=C(O)C1Cc2c([nH]c3ccccc23)C(CCCCO)N1 (stereo unspecified) | > 100 µM
Cc1cc(Cc2c(C)c(C)c(Cc3cc(C)cc(C(C)(C)C)c3O)c(C)c2C)c(O)c(C(C)(C)C)c1 | > 100 µM

Tested on: CAKI-1 renal
Experiment: DTP human tumour cell line panel, 48 h

Structure (SMILES) | TGI
CC(=O)Oc1ccc2c3c1[C@H]1O[C@H]1c1cccc(c1-3)[C@@H]1O[C@H]21 | 7.96 µM
Cc1ccc(/C(O)=C/c2nc3ccccc3[nH]c2=O)cc1 | 14.2 µM
COc1ccc2c(c1)CCc1cc(C(N)=O)c3nnnn3c1-2 | > 100 µM
O=C(O)C1Cc2c([nH]c3ccccc23)C(CCCCO)N1 (stereo unspecified) | > 100 µM
Cc1cc(Cc2c(C)c(C)c(Cc3cc(C)cc(C(C)(C)C)c3O)c(C)c2C)c(O)c(C(C)(C)C)c1 | > 100 µM

Tested on: HCT-15 colon
Experiment: DTP human tumour cell line panel, 48 h

Structure (SMILES) | TGI
CC(=O)Oc1ccc2c3c1[C@H]1O[C@H]1c1cccc(c1-3)[C@@H]1O[C@H]21 | 13.1 µM
Cc1ccc(/C(O)=C/c2nc3ccccc3[nH]c2=O)cc1 | > 100 µM
COc1ccc2c(c1)CCc1cc(C(N)=O)c3nnnn3c1-2 | > 100 µM
O=C(O)C1Cc2c([nH]c3ccccc23)C(CCCCO)N1 (stereo unspecified) | > 100 µM
Cc1cc(Cc2c(C)c(C)c(Cc3cc(C)cc(C(C)(C)C)c3O)c(C)c2C)c(O)c(C(C)(C)C)c1 | > 100 µM

Tested on: UACC-62 melanoma
Experiment: DTP human tumour cell line panel, 48 h

Structure (SMILES) | TGI
CC(=O)Oc1ccc2c3c1[C@H]1O[C@H]1c1cccc(c1-3)[C@@H]1O[C@H]21 | 20.8 µM
Cc1ccc(/C(O)=C/c2nc3ccccc3[nH]c2=O)cc1 | 9.38 µM
COc1ccc2c(c1)CCc1cc(C(N)=O)c3nnnn3c1-2 | 23.9 µM
O=C(O)C1Cc2c([nH]c3ccccc23)C(CCCCO)N1 (stereo unspecified) | > 100 µM
Cc1cc(Cc2c(C)c(C)c(Cc3cc(C)cc(C(C)(C)C)c3O)c(C)c2C)c(O)c(C(C)(C)C)c1 | > 100 µM

Tested on: OVCAR-8 ovarian
Experiment: DTP human tumour cell line panel, 48 h

Structure (SMILES) | TGI
CC(=O)Oc1ccc2c3c1[C@H]1O[C@H]1c1cccc(c1-3)[C@@H]1O[C@H]21 | 9.88 µM
Cc1ccc(/C(O)=C/c2nc3ccccc3[nH]c2=O)cc1 | 12.2 µM
COc1ccc2c(c1)CCc1cc(C(N)=O)c3nnnn3c1-2 | > 100 µM
O=C(O)C1Cc2c([nH]c3ccccc23)C(CCCCO)N1 (stereo unspecified) | > 100 µM
Cc1cc(Cc2c(C)c(C)c(Cc3cc(C)cc(C(C)(C)C)c3O)c(C)c2C)c(O)c(C(C)(C)C)c1 | > 100 µM

Tested on: HL-60(TB) leukemia
Experiment: DTP human tumour cell line panel, 48 h

Structure (SMILES) | TGI
CC(=O)Oc1ccc2c3c1[C@H]1O[C@H]1c1cccc(c1-3)[C@@H]1O[C@H]21 | 6.61 µM
Cc1ccc(/C(O)=C/c2nc3ccccc3[nH]c2=O)cc1 | > 100 µM
COc1ccc2c(c1)CCc1cc(C(N)=O)c3nnnn3c1-2 | > 100 µM
O=C(O)C1Cc2c([nH]c3ccccc23)C(CCCCO)N1 (stereo unspecified) | > 100 µM
Cc1cc(Cc2c(C)c(C)c(Cc3cc(C)cc(C(C)(C)C)c3O)c(C)c2C)c(O)c(C(C)(C)C)c1 | 83.6 µM

Tested on: HOP-92 NSCLC
Experiment: DTP human tumour cell line panel, 48 h

Structure (SMILES) | TGI
CC(=O)Oc1ccc2c3c1[C@H]1O[C@H]1c1cccc(c1-3)[C@@H]1O[C@H]21 | 24.9 µM
Cc1ccc(/C(O)=C/c2nc3ccccc3[nH]c2=O)cc1 | 27.1 µM
COc1ccc2c(c1)CCc1cc(C(N)=O)c3nnnn3c1-2 | > 100 µM
O=C(O)C1Cc2c([nH]c3ccccc23)C(CCCCO)N1 (stereo unspecified) | > 100 µM
Cc1cc(Cc2c(C)c(C)c(Cc3cc(C)cc(C(C)(C)C)c3O)c(C)c2C)c(O)c(C(C)(C)C)c1 | > 100 µM

Tested on: OVCAR-5 ovarian
Experiment: DTP human tumour cell line panel, 48 h

Structure (SMILES) | TGI
CC(=O)Oc1ccc2c3c1[C@H]1O[C@H]1c1cccc(c1-3)[C@@H]1O[C@H]21 | 31.8 µM
Cc1ccc(/C(O)=C/c2nc3ccccc3[nH]c2=O)cc1 | > 100 µM
COc1ccc2c(c1)CCc1cc(C(N)=O)c3nnnn3c1-2 | > 100 µM
O=C(O)C1Cc2c([nH]c3ccccc23)C(CCCCO)N1 (stereo unspecified) | > 100 µM
Cc1cc(Cc2c(C)c(C)c(Cc3cc(C)cc(C(C)(C)C)c3O)c(C)c2C)c(O)c(C(C)(C)C)c1 | > 100 µM

Tested on: ACHN renal
Experiment: DTP human tumour cell line panel, 48 h

Structure (SMILES) | TGI
CC(=O)Oc1ccc2c3c1[C@H]1O[C@H]1c1cccc(c1-3)[C@@H]1O[C@H]21 | 37.4 µM
Cc1ccc(/C(O)=C/c2nc3ccccc3[nH]c2=O)cc1 | 14.5 µM
COc1ccc2c(c1)CCc1cc(C(N)=O)c3nnnn3c1-2 | > 100 µM
O=C(O)C1Cc2c([nH]c3ccccc23)C(CCCCO)N1 (stereo unspecified) | > 100 µM
Cc1cc(Cc2c(C)c(C)c(Cc3cc(C)cc(C(C)(C)C)c3O)c(C)c2C)c(O)c(C(C)(C)C)c1 | > 100 µM

Tested on: SF-268 CNS
Experiment: DTP human tumour cell line panel, 48 h

Structure (SMILES) | TGI
CC(=O)Oc1ccc2c3c1[C@H]1O[C@H]1c1cccc(c1-3)[C@@H]1O[C@H]21 | 14.4 µM
Cc1ccc(/C(O)=C/c2nc3ccccc3[nH]c2=O)cc1 | 24 µM
COc1ccc2c(c1)CCc1cc(C(N)=O)c3nnnn3c1-2 | 29.3 µM
O=C(O)C1Cc2c([nH]c3ccccc23)C(CCCCO)N1 (stereo unspecified) | > 100 µM
Cc1cc(Cc2c(C)c(C)c(Cc3cc(C)cc(C(C)(C)C)c3O)c(C)c2C)c(O)c(C(C)(C)C)c1 | > 100 µM

Tested on: SW-620 colon
Experiment: DTP human tumour cell line panel, 48 h

Structure (SMILES) | TGI
CC(=O)Oc1ccc2c3c1[C@H]1O[C@H]1c1cccc(c1-3)[C@@H]1O[C@H]21 | 4.59 µM
COc1ccc2c(c1)CCc1cc(C(N)=O)c3nnnn3c1-2 | > 100 µM
O=C(O)C1Cc2c([nH]c3ccccc23)C(CCCCO)N1 (stereo unspecified) | > 100 µM
Cc1cc(Cc2c(C)c(C)c(Cc3cc(C)cc(C(C)(C)C)c3O)c(C)c2C)c(O)c(C(C)(C)C)c1 | > 100 µM

Tested on: HS 578T breast
Experiment: DTP human tumour cell line panel, 48 h

Structure (SMILES) | TGI
CC(=O)Oc1ccc2c3c1[C@H]1O[C@H]1c1cccc(c1-3)[C@@H]1O[C@H]21 | 14.4 µM
Cc1ccc(/C(O)=C/c2nc3ccccc3[nH]c2=O)cc1 | 6.79 µM
COc1ccc2c(c1)CCc1cc(C(N)=O)c3nnnn3c1-2 | > 100 µM
O=C(O)C1Cc2c([nH]c3ccccc23)C(CCCCO)N1 (stereo unspecified) | > 100 µM
Cc1cc(Cc2c(C)c(C)c(Cc3cc(C)cc(C(C)(C)C)c3O)c(C)c2C)c(O)c(C(C)(C)C)c1 | > 100 µM

Tested on: COLO 205 colon
Experiment: DTP human tumour cell line panel, 48 h

Structure (SMILES) | TGI
CC(=O)Oc1ccc2c3c1[C@H]1O[C@H]1c1cccc(c1-3)[C@@H]1O[C@H]21 | 27.4 µM
Cc1ccc(/C(O)=C/c2nc3ccccc3[nH]c2=O)cc1 | > 100 µM
COc1ccc2c(c1)CCc1cc(C(N)=O)c3nnnn3c1-2 | > 100 µM
O=C(O)C1Cc2c([nH]c3ccccc23)C(CCCCO)N1 (stereo unspecified) | > 100 µM
Cc1cc(Cc2c(C)c(C)c(Cc3cc(C)cc(C(C)(C)C)c3O)c(C)c2C)c(O)c(C(C)(C)C)c1 | > 100 µM

Tested on: LOX IMVI melanoma
Experiment: DTP human tumour cell line panel, 48 h

Structure (SMILES) | TGI
CC(=O)Oc1ccc2c3c1[C@H]1O[C@H]1c1cccc(c1-3)[C@@H]1O[C@H]21 | 4.13 µM
Cc1ccc(/C(O)=C/c2nc3ccccc3[nH]c2=O)cc1 | 52.1 µM
COc1ccc2c(c1)CCc1cc(C(N)=O)c3nnnn3c1-2 | > 100 µM
O=C(O)C1Cc2c([nH]c3ccccc23)C(CCCCO)N1 (stereo unspecified) | > 100 µM
Cc1cc(Cc2c(C)c(C)c(Cc3cc(C)cc(C(C)(C)C)c3O)c(C)c2C)c(O)c(C(C)(C)C)c1 | > 100 µM

Tested on: MDA-MB-435
Experiment: DTP human tumour cell line panel, 48 h

Structure (SMILES) | TGI
CC(=O)Oc1ccc2c3c1[C@H]1O[C@H]1c1cccc(c1-3)[C@@H]1O[C@H]21 | 4.26 µM
Cc1ccc(/C(O)=C/c2nc3ccccc3[nH]c2=O)cc1 | 31.8 µM
COc1ccc2c(c1)CCc1cc(C(N)=O)c3nnnn3c1-2 | > 100 µM
O=C(O)C1Cc2c([nH]c3ccccc23)C(CCCCO)N1 (stereo unspecified) | > 100 µM
Cc1cc(Cc2c(C)c(C)c(Cc3cc(C)cc(C(C)(C)C)c3O)c(C)c2C)c(O)c(C(C)(C)C)c1 | > 100 µM
